The record followed here is US7626027B2, “Substituted 1H-pyrrolo[2,3-c]pyridine-2-carboxamides and related analogs as inhibitors of casein kinase Iε” (Aventis Pharmaceuticals Inc, priority 2003, dated 2009).

T1 sequence (P49674 whole entry): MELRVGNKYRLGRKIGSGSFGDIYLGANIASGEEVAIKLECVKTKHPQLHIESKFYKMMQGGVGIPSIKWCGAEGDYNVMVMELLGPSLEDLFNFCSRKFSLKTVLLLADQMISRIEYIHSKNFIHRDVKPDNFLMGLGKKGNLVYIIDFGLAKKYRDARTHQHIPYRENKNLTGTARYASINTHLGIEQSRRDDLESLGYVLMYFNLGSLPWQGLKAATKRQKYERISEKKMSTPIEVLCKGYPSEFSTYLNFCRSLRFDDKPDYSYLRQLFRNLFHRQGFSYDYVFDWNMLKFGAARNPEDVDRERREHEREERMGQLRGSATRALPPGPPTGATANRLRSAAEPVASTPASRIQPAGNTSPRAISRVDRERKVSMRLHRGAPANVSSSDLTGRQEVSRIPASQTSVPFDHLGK

One test concerns the target T1, casein kinase 1ε (Homo sapiens, UniProt P49674).
T1 construct: made in house
In words: Casein Kinase Epsilon 33P-ATP Filter Plate Assay. It is filed as biochemical.
Conditions: not given
The text has this: Casein Kinase Epsilon ^33P-ATP Filter Plate Assay for Screening CK1 Inhibitors Purpose: This assay measures the effect of compounds to inhibit the phosphorylation of the substrate casein by the enzyme casein kinase 1ε using an in vitro ^33P-ATP filtration assay.
Equipment: • Beckman Biomek 2000 Liquid Handling Robot • Beckman Multimek 96 Automated 96 Channel Pipettor • Millipore Vacuum Manifold Basic Kit # MAVM0960R • Titertek Multidrop Liquid Dispenser • Packard TopCount NXT Liquid Scintillation Counter
Enzyme: • Casein Kinase 1ε final concentration 0.58 mg/ml obtained from fermentation and purification processes performed by Aventis Pharmaceuticals Inc., France. The above are stored as 100 μL aliquots at minus 80° C.
Compounds: • Compounds for testing are supplied as frozen 10 mM compound stock dissolved in 100% DMSO. Assay Conditions:
Final total assay volume per well is equal to 50 μL made up as follows: • 5 μL of diluted compound stock ([…], 0.1, 0.01 or 0.001 μM), • 5 μL of dephosphorylated casein final concentration 0.2 μg/μL, • 20 μL of CK1ε final concentration 3 ng/μL, and • 20 μL of γ-^33P-ATP final concentration 0.02 μCi/μL mixed with cold ATP (10 μM final). Methodology: • 1. 500 mL of fresh assay buffer is made: 50 mM Tris pH 7.5, 10 mM MgCl2, 2 mM DTT and 1 mM EGTA • 2. Compounds to be evaluated are obtained as 10 μL of 10 mM stock dissolved in 100% DMSO. Using a Biomek 2000 liquid handling robot, serial dilutions are made to yield 10, 1, 0.1, 0.01 and 0.001 μM final compound dilutions added as 5 μL additions to Falcon U bottom plates. […] A routine screening assay will consist of 32 compounds, which equals 4 assay plates. • 3. Assay plate maps are set up according to the following pattern
• 4. […] Finally 20 μL […] (0.02 μCi/μL)/10 μM cold ATP are added (equals approximately 2×10^6 CPM per well). • 6. The Falcon U-Bottom assay plate containing the above 50 μL reaction volume is vortexed and then incubated at room temperature for 2 hours. • 7. At the end of 2 hours, the reaction is stopped by the addition of 65 μL of ice cold 2 mM cold ATP (made up in assay buffer) to the assay plates using a Beckman Multimek • 8. At the same time 25 μL 100% ice cold TCA made up in distilled H2O is added to a matching number of Millipore MAPH filter plates. • 9. Using a handheld 8-channel pipettor, 100 μL of the reaction mixture is transferred from the Falcon U-Bottom Plate to the Millipore MAPH filter plates presoaked with TCA. • 10. The Millipore MAPH filter plates are mixed gently and allowed to sit at room temperature for at least 30 minutes to precipitate the proteins. • 11. After 30 minutes the filter plates are placed on a Millipore vacuum manifold and filtered at no more than 8 mm Hg as the MAPH filters tend to “air lock” at higher vacuum settings. • 12. The filter plates are sequentially washed and filtered with 2×150 μL 20% TCA, 2×150 μL 10% TCA and 2×150 μL 5% TCA (total of 6 washes per plate/900 μL per well). • 13. Plates are allowed to dry overnight at room temperature. The next day 40 μL Packard Microscint-20 Scintillation Fluid is added per well using a Titertek Multidrop dispenser; the plates are sealed and counted for 2 minutes/well in a Packard Topcount NXT Scintillation Counter (CPM values/well are captured). Calculation: • 1. Counts Per Minute (CPM) data is captured and imported into a proprietary data calculation and archiving database (Activity Base by IDBS version 5.0). • 2. Column 1 for each plate reflects total phosphorylation activity of the enzyme in the absence of any inhibiting compound and thus represents 100%. Column 12 reflects any nonspecific phosphorylation/retained radioactivity activity in the absence of inhibiting compound and enzyme.
With `NC(=O)c1[nH]c2cccnc2c1Sc1cccc(Cl)c1Cl` [Ia-9, 3-(2,3-Dichlorophenylsulfanyl)-1H-pyrrolo[3,2-b]pyridine-2-carboxylic acid amide], the IC50 was greater than 10000 nM.
Regarding `NC(=O)c1[nH]c2cccnc2c1Sc1cccc(C(F)(F)F)c1` [Ia-11, 3-(3-Trifluoromethyl-phenylsulfanyl)-1H-pyrrolo[3,2-b]pyridine-2-carboxylic acid, amide], half-maximal inhibition (IC50) was put at 709 nM.
`NC(=O)c1[nH]c2cccnc2c1Sc1cc(Cl)ccc1Cl` [Ia-13, 3-(2,5-Dichloro-phenylsulfanyl)-1H-pyrrolo[3,2-b]pyridine-2-carboxylic acid amide] displayed an IC50 greater than 10000 nM.
`COc1ccccc1Sc1c(C(N)=O)[nH]c2cccnc12` [Ia-14, 3-(2-Methoxy-phenylsulfanyl)-1H-pyrrolo[3,2-b]pyridine-2-carboxylic acid amide] yielded an IC50 of 669 nM.
As to `NC(=O)c1[nH]c2cccnc2c1Sc1cccc(N)c1` [Ia-16, 3-(3-Amino-phenylsulfanyl)-1H-pyrrolo[3,2-b]pyridine-2-carboxylic acid amide], the IC50 is 424 nM.
`NC(=O)c1[nH]c2cccnc2c1Sc1ccc([N+](=O)[O-])cc1` [Ia-17, 3-(4-Nitro-phenylsulfanyl)-1H-pyrrolo[3,2-b]pyridine-2-carboxylic acid amide] showed an IC50 of 9790 nM.
On to `Cc1ccccc1Sc1c(C(N)=O)[nH]c2cccnc12` [Ia-19, 3-o-Tolylsulfanyl-1H-pyrrolo[3,2-b]pyridine-2-carboxylic acid amide], for which the midpoint of inhibition, the IC50, lay at 140 nM.
`Cc1cc(C)cc(Sc2c(C(N)=O)[nH]c3cccnc23)c1` [Ia-21, 3-(3,5-Dimethyl-phenylsulfanyl)-1H-pyrrolo[3,2-b]pyridine-2-carboxylic acid amide] had an IC50 of 6880 nM.
Consider `CCc1ccccc1Sc1c(C(N)=O)[nH]c2cccnc12` [Ia-23, 3-(2-Ethyl-phenylsulfanyl)-1H-pyrrolo[3,2-b]pyridine-2-carboxylic acid amide], for which the IC50 was determined as 6480 nM.
`NC(=O)c1[nH]c2cccnc2c1Sc1cccc(OC(F)(F)F)c1` [Ia-24, 3-(3-Trifluoromethoxy-phenylsulfanyl)-1H-pyrrolo[3,2-b]pyridine-2-carboxylic acid, amide] returned an IC50 of 219 nM.
On the same count and under the same terms, the value for `NC(=O)c1[nH]c2cccnc2c1Sc1ccccn1` [Ia-26, 3-(Pyridin-2-sulfanyl)-1H-pyrrolo[3,2-b]pyridine-2-carboxylic acid amide] was 190 nM; that for `NC(=O)c1[nH]c2cccnc2c1Sc1ccncc1` [Ia-27, 3-(Pyridin-4-sulfanyl)-1H-pyrrolo[3,2-b]pyridine-2-carboxylic acid amide] was 2980 nM; that for `NC(=O)c1[nH]c2cccnc2c1Sc1cccs1` [Ia-28, 3-(Thiophen-2-ylsulfanyl)-1H-pyrrolo[3,2-b]pyridine-2-carboxylic acid amide] was 53 nM.
Same read-out and setting: as for `CNC(=O)c1c(Sc2ccccc2)c2ncccc2n1C` [Ia-29, 1-Methyl-3-phenylsulfanyl-1H-pyrrolo[3,2-b]pyridine-2-carboxylic acid methylamide], the figure is greater than 10000 nM; as for `CNC(=O)c1[nH]c2cccnc2c1Sc1cccc(OC(F)(F)F)c1` [Ia-30], greater than 10000 nM; as for `CNC(=O)c1[nH]c2cccnc2c1Sc1cccc(Cl)c1` [Ia-31], greater than 10000 nM.
Still for that read-out and setting: the value for `CNC(=O)c1[nH]c2cccnc2c1Sc1ccccc1` [Ia-33, 3-Phenylsulfanyl-1H-pyrrolo[3,2-b]pyridine-2-carboxylic acid methylamide] was greater than 10000 nM; that for `Cn1c(C(N)=O)c(Sc2ccccc2)c2ncccc21` [Ia-34, 1-Methyl-3-phenylsulfanyl-1H-pyrrolo[3,2-b]pyridine-2-carboxylic acid amide] was 339 nM; that for `COc1ccc2[nH]c(C(N)=O)c(Sc3cccc(F)c3)c2n1` [Ia-35, 3-(3-Fluoro-phenylsulfanyl)-5-methoxy-1H-pyrrolo[3,2-b]pyridine-2-carboxylic acid amide] was 896 nM.
In turn, `COc1cccc(Sc2c(C(N)=O)[nH]c3ccc(OC)nc23)c1` [Ia-36, 3-(3-Methoxy-phenylsulfanyl)-5-methoxy-1H-pyrrolo[3,2-b]pyridine-2-carboxylic acid amide] displayed an IC50 of 86 nM.
On to `CCCn1c(C(N)=O)c(Sc2ccccc2)c2ncccc21` [Ia-37, 3-Phenylsulfanyl-1-propyl-1H-pyrrolo[3,2-b]pyridine-2-carboxylic acid amide], for which it took 123 nM to reach half-maximal inhibition (IC50).
`NC(=O)c1[nH]c2ccncc2c1Sc1ccccc1` [Ib-1, 3-Phenylsulfanyl-1H-pyrrolo[3,2-c]pyridine-2-carboxylic acid amide]: 1130 nM corresponded to half-maximal inhibition (IC50).
`NC(=O)c1[nH]c2ccncc2c1Sc1cccc(F)c1` [Ib-2] yielded a half-inhibitory concentration (IC50) of 466 nM.
The same measure, in the same setting: as for `NC(=O)c1[nH]c2ccncc2c1Sc1ccc(Cl)cc1` [Ib-3], the figure is 7960 nM.
The compound `NC(=O)c1[nH]c2cnccc2c1Sc1ccccc1` [Ic-1, 3-Phenylsulfanyl-1H-pyrrolo[2,3-c]pyridine-2-carboxylic acid amide] showed an IC50 of 388 nM.
Turning to `NC(=O)c1[nH]c2cnccc2c1S(=O)(=O)c1ccccc1` [Ic-2, 3-Benzenesulfonyl-1H-pyrrolo[2,3-c]pyridine-2-carboxylic acid amide], the IC50 is greater than 10000 nM.
The same measure, in the same setting: as for `NC(=O)c1[nH]c2cnccc2c1Sc1cccc(F)c1` [Ic-3, 3-(3-Fluoro-phenylsulfanyl)-1H-pyrrolo[2,3-c]pyridine-2-carboxylic acid amide], the figure is 1840 nM.
Same read-out and setting: as for `COc1cccc(Sc2c(C(N)=O)[nH]c3cnccc23)c1` [Ic-4, 3-(3-Methoxy-phenylsulfanyl)-1H-pyrrolo[2,3-c]pyridine-2-carboxylic acid amide], the figure is 397 nM; as for `NC(=O)c1[nH]c2cnccc2c1Sc1cccc(Cl)c1` [Ic-5, 3-(3-Chloro-phenylsulfanyl)-1H-pyrrolo[2,3-c]pyridine-2-carboxylic acid amide], 375 nM.
Compound `NC(=O)c1[nH]c2cnccc2c1Sc1ccccc1C(F)(F)F` [Ic-6, 3-(2-Trifluoromethyl-phenylsulfanyl)-1H-pyrrolo[2,3-c]pyridine-2-carboxylic acid amide] came in with an IC50 of 759 nM.
On the same count and under the same terms, as for `NC(=O)c1[nH]c2cnccc2c1Sc1ccccc1OC(F)(F)F` [Ic-7, 3-(2-Trifluoromethoxy-phenylsulfanyl)-1H-pyrrolo[2,3-c]pyridine-2-carboxylic acid amide], the figure is 1290 nM; as for `COc1ccccc1Sc1c(C(N)=O)[nH]c2cnccc12` [Ic-8, 3-(2-Methoxy-phenylsulfanyl)-1H-pyrrolo[2,3-c]pyridine-2-carboxylic acid amide], 442 nM.
Still for that read-out and setting: as for `NC(=O)c1[nH]c2cnccc2c1Sc1ccccn1` [Ic-9, 3-(Pyridin-2-sulfanyl)-1H-pyrrolo[2,3-c]pyridine-2-carboxylic acid amide], the figure is 291 nM.

The test is the same for the next values; noted with them: phosphorylation of casein, 10 μM cold ATP, 2 hours room temperature; * denotes average of 2 or more determinations; read-out: Casein Kinase Iε 33P-ATP Filter Plate Assay IC50.
On to `CNC(=O)c1[nH]c2cccnc2c1Sc1cccc(F)c1` [Ia-32], for which the IC50 is greater than 10000 nM.

One may read the IC50 as the concentration that inhibits the measured activity by half.
